Here are results for 52 compounds from patent US8476197B2, “Aminopropenoates as fungicides” (priority 2009, dated 2013).

Marks after values point to notes of the source that are not given here.

The conditions of the first data set: pH 2.3.
With `COC(=O)C(C#N)=C(NC(C)C#N)c1cccnc1Cl` (centres unmarked) [Compound 869], the “Log P” value came out at 1.85.

Turning to `CCOC(=O)C(C#N)=C(Nc1cnc2sccc2c1)c1cccnc1Cl` [Compound 1310], the “Log P” value is given as 2.56.

As for `CCOC(=O)C(C#N)=C(NC1CCCCC1C)c1cccnc1Cl` (centres unmarked) [Compound 1066], the “Log P” value was determined as 3.84.

Still in this data set, the particulars now being: pH 2.7.
Take `CCOC(=O)C(C#N)=C(NC(C)c1nccs1)c1cnc(Cl)cc1Cl` (racemic) [Compound 223]: the “Log P” value is 3^[a].

For the compound `CCOC(=O)C(C#N)=C(NC(C)Cc1cc2ccccc2[nH]1)c1sc(C)nc1C(F)(F)F` (racemic) [Compound 145], the “Log P” value is 3.85^[a].

For `CCOC(=O)C(C#N)=C(NCc1nc(C)cs1)c1sccc1C(F)(F)F` [Compound 175], the “Log P” value is 3.11^[a].

With `CCOC(=O)C(C#N)=C(NC(C)c1nccs1)c1ccnc(Br)c1F` (centres unmarked) [Compound 1330], the “Log P” value was 3^[a].

For `CCOC(=O)C(C#N)=C(NCC(C)N)c1sccc1C(F)(F)F` (centres unmarked) [Compound 609], the “Log P” value is 1.42^[a].

Regarding `CCOC(=O)C(C#N)=C(NC(C)C(C)C)c1cc(Cl)sc1Cl` (centres unmarked) [Compound 965], the “Log P” value is 4.72^[a].

In the case of `CCCCCCC(C)NC(=C(C#N)C(=O)OCC)c1c(C)nn(C)c1F` (racemic) [Compound 813], the “Log P” value is 4.51^[a].

For the compound `CCOC(=O)C(C#N)=C(Nc1ccc(C(C)C)cc1)c1cn(C)nc1C(F)F` [Compound 497], the “Log P” value is 3.76^[a].

With `CCCC(C)NC(=C(C#N)C(=O)OCC)c1cn(C)nc1C(F)F` (centres unmarked) [Compound 864], the “Log P” value was 3.19^[a].

Regarding `COC(=O)C(C#N)=C(NC(C)C(N)=O)c1sc(C)nc1C(F)(F)F` (racemic) [Compound 668], the “Log P” value was 1.78^[a].

As to `CCCC(C)NC(=C(C#N)C(=O)OCC)c1sccc1C(F)(F)F` (centres unmarked) [Compound 865], the “Log P” value was 4.21^[a].

With `CCOC(=O)C(C#N)=C(NC(C)C(C)C)c1cccnc1Cl` (centres unmarked) [Compound 952], the “Log P” value came out at 3.37.

With `CCOC(=O)C(C#N)=C(NC1CCCC1OC)c1cn(C)nc1C(F)F` (centres unmarked) [Compound 1352], the “Log P” value was 2.78^[a].

Turning to `CCOC(=O)C(C#N)=C(NC(C)Cc1nccs1)c1ccncc1F` (mixture of isomers) [Compound 302], the lipophilicity (Log P) is 2.19^[a].

As to `CCCCC(C)NC(=C(C#N)C(=O)OCC)c1cn(C)nc1C(F)F` (centres unmarked) [Compound 1125], the “Log P” value was 3.58^[a].

In the case of `COC(=O)C(C#N)=C(NC(C)Cc1ccccc1C)c1cccnc1Cl` (centres unmarked) [Compound 423], the “Log P” value is 3.23^[a].

Regarding `COC(=O)C(C#N)=C(NC(C)(C)C)c1cccnc1Cl` [Compound 775], the “Log P” value was 2.31^[a].

Regarding `C#CC(NC(=C(C#N)C(=O)OCC)c1cccnc1Cl)C(C)C` (centres unmarked) [Compound 1521], the “Log P” value is 3.37^[a].

Turning to `CCCCCC(C)NC(=C(C#N)C(=O)OCC)c1cccnc1Cl` (centres unmarked) [Compound 1188], the “Log P” value is 4.26^[a].

`CC(C)C(C)NC(=C(C#N)C(=O)N1CCCCC1)c1cccnc1Cl` (centres unmarked) [Compound 1508]: the “Log P” value is 3.48^[a].

For `CCOC(=O)C(C#N)=C(NC(C)c1ccc(Cl)cc1)c1ccsc1Br` (centres unmarked) [Compound 411], the “Log P” value was 4.35^[a].

For `CCOC(=O)C(C#N)=C(NC1CCC1)c1ccnc(Cl)c1F` [Compound 1321], the “Log P” value is 3.39^[a].

On to `CC(C)C(C)NC(=C(C#N)C(=O)NN(C)C)c1cccnc1Cl` (centres unmarked) [Compound 1614], for which the “Log P” value is 2.08^[a].

As for `CCOC(=O)C(C#N)=C(NC(C)c1ccc(Cl)cc1)c1cn(C)cc1C(F)(F)F` (racemic) [Compound 542], the “Log P” value was 4.2^[a].

For `CCOC(=O)C(C#N)=C(NCc1ncc(C)s1)c1sc(C)nc1C(F)(F)F` [Compound 219], the “Log P” value was 3^[a].

Regarding `CCOC(=O)C(C#N)=C(NC(C)C(F)(F)F)c1cc(Cl)sc1Cl` (racemic) [Compound 810], the “Log P” value is 4.11^[a].

In the case of `CCCCCC(C)NC(=C(C#N)C(=O)OCC)c1sccc1Br` (racemic) [Compound 846], the “Log P” value was 5.03^[a].

With `COC(=O)C(C#N)=C(NC(C)c1nc(C)c(C)s1)c1cn(C)nc1C(F)F` (racemic) [Compound 47], the “Log P” value is 2.65^[a].

For `CCOC(=O)C(C#N)=C(NC(C)CC(F)(F)F)c1cccnc1Cl` (centres unmarked) [Compound 1366], the lipophilicity (Log P) was 2.92^[a].

Turning to `CCOC(=O)C(C#N)=C(Nc1ccc(N(C)C)cc1)c1cn(C)nc1C(F)F` [Compound 496], the “Log P” value was 2.71^[a].

Consider `CCOC(=O)C(C#N)=C(NCC#N)c1ccsc1Br` [Compound 791], for which the “Log P” value was 2.32^[a].

In the case of `COC(=O)C(C#N)=C(NC(C)c1ccc(F)cc1)c1sc(C)nc1C(F)(F)F` (mixture of isomers) [Compound 442], the “Log P” value was 3.64^[a].

In the case of `CCOCC(CC)NC(=C(C#N)C(=O)OCC)c1cn(C)nc1C(F)F` (centres unmarked) [Compound 1351], the “Log P” value is 3.08^[a].

Consider `CCOC(=O)C(C#N)=C(NC(C)c1nccs1)c1c(C(F)F)nn(C)c1Cl` (racemic) [Compound 234], for which the log partition coefficient (Log P) is 2.77^[a].

Take `CCOC(=O)C(C#N)=C(NC(C)CN1CCOCC1)c1cccnc1Cl` (racemic) [Compound 274]: the “Log P” value was 1.3^[a].

As to `CCOC(=O)C(C#N)=C(NC(C)C(C)C)c1ccnc2ccccc12` (centres unmarked) [Compound 1496], the log partition coefficient (Log P) was 3.29^[a].

Regarding `CCOC(=O)C(C#N)=C(NC(C)(C)C=C(Cl)Cl)c1sccc1C(F)(F)F` [Compound 1103], the “Log P” value was 4.26^[a].

Regarding `CCOC(=O)C(C#N)=C(NC(C)(C)C#CCOC)c1cn(C)nc1C(F)F` [Compound 1101], the “Log P” value is 2.73^[a].

Take `CCOC(=O)C(C#N)=C(NC(C)CF)c1cc(C)oc1C` (centres unmarked) [Compound 745]: the “Log P” value was 2.8^[a].

Regarding `CCOC(=O)C(C#N)=C(NC1CCC1)c1cnn(C)c1Cl` [Compound 1487], the “Log P” value was 2.82^[a].

With `CCOC(=O)C(C#N)=C(NC1CCC1)c1ccncc1C(F)(F)F` [Compound 805], the “Log P” value is 3.6^[a].

Take `CCC1CCCC(C)C1NC(=C(C#N)C(=O)OC)c1cccnc1Cl` (centres unmarked) [Compound 1060]: the “Log P” value was 3.99^[a].

With `CCOC(=O)C(C#N)=C(NCc1ccccn1)c1ncc(C(F)(F)F)cc1Cl` [Compound 42], the “Log P” value is 2.98^[a].

With `CC#CC1(NC(=C(C#N)C(=O)OCC)c2cccnc2Cl)CCCC1` [Compound 1275], the “Log P” value was 3.69^[a].

For `C=CCCCC(C=C)NC(=C(C#N)C(=O)OCC)c1cn(C)nc1C(F)F` (racemic) [Compound 1016], the “Log P” value was 3.73^[a].

The same data set, now with this note: pH 7.5.
Regarding `CCOC(=O)C(C#N)=C(NC(C)Cc1ncc(C(F)(F)F)cc1Cl)c1cccnc1Cl` (racemic) [Compound 49], the “Log P” value is listed as 3.76.

In the case of `CC(C)OC(=O)C(C#N)=C(NC(C)c1nccs1)c1cccnc1Cl` (centres unmarked) [Compound 23], the “Log P” value came out at 2.7.

Consider `CCOC(=O)C(C#N)=C(NC(C)C(C)C)c1cccnc1Cl` (centres unmarked) [Compound 952], for which the “Log P” value is listed as 3.33.

With `COC(=O)C(C#N)=C(NC(C)C#N)c1cccnc1Cl` (centres unmarked) [Compound 869], the “Log P” value is on record as 1.86.

Take `CCOC(=O)C(C#N)=C(Nc1cnc2sccc2c1)c1cccnc1Cl` [Compound 1310]: the “Log P” value was found to be 2.49.

Consider `CCOC(=O)C(C#N)=C(NC1CCCCC1C)c1cccnc1Cl` (centres unmarked) [Compound 1066], for which the “Log P” value turned out to be 3.7.

As to `CCOC(=O)C(C#N)=C(NC(C)CCCC(C)C)c1cccnc1Cl` (mixture of isomers) [Compound 1582], the “Log P” value stood at 4.47.

On to `C#CCOC(=O)C(C#N)=C(NC(C)c1nccs1)c1cccnc1Cl` (racemic) [Compound 267], for which the “Log P” value is listed as 2.26.

In general, Log P refers to a log measure of how a compound divides between an organic and an aqueous phase.
